Measured values taken from patent US20230365553A1, “COMPOUNDS AND COMPOSITIONS FOR TREATING CONDITIONS ASSOCIATED WITH STING ACTIVITY” (IFM Due, Inc., priority 2020, published 2023).

What follows are compounds tested against T1, STING (Homo sapiens, UniProt Q86WV6, G230A/H232R/R293Q/R71H) (assay: STING reporter assay: luciferase reporter activity in THP1-Dual KO-IFNAR2 cells stimulated with 2′3′cGAMP). Details: 15 μM 2′3′cGAMP, 24h, read-out: hSTING EC50.
T1 construct: host or cells: THP1-Dual KO-IFNAR2 cells
Type: cell-based
How it was run: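 THP1-Dual KO-IFNAR2 cells (2×10E6 cells/mL) were exposed to compounds at 0.0017-100 μM, then stimulated with 2′3′cGAMP (15 μM final) transfected via Lipofectamine 2000. After 24h at 37° C., secreted luciferase in supernatant was read by QUANTI-Luc luminescence; EC50 derived from concentration-response.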

T1 sequence (Q86WV6 whole entry R71H/G230A/H232R/R293Q): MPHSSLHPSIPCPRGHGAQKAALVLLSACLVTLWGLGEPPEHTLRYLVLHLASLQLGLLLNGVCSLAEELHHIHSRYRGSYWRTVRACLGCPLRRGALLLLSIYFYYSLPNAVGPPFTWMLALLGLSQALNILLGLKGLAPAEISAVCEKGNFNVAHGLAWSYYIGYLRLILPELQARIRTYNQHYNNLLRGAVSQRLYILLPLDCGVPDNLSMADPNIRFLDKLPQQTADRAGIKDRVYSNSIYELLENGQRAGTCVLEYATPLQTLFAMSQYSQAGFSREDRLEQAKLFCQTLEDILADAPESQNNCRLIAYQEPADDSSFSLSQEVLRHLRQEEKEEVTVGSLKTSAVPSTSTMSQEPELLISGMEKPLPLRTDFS

SMILES | EC50 [µM]
CC(C)CC(C)(N)C(=O)Nc1c[nH]c2ccc(-c3cnn(-c4ccc(C(F)(F)F)cc4)c3)cc12 (stereo not drawn) [Compound 182, 2-amino-2,4-dimethyl-N-(5-(1-(4-(trifluoromethyl)phenyl)-1H-pyrazol-4-yl)-1H-indol-3-yl)pentanamide] | 5 to 100
NC1(C(=O)Nc2c[nH]c3ccc(-c4cnn(-c5ccc(C(F)(F)F)cc5)c4)cc23)CC(F)(F)C1 [Compound 185, 1-amino-3,3-difluoro-N-(5-(1-(4-(trifluoromethyl)phenyl)-1H-pyrazol-4-yl)-1H-indol-3-yl)cyclobutane-1-carboxamide] | 5 to 100
CC(C)(N)CC(=O)Nc1c[nH]c2ccc(-c3cnn(-c4ccc(C(F)(F)F)cc4)c3)cc12 [Compound 189, 3-amino-3-methyl-N-(5-(1-(4-(trifluoromethyl)phenyl)-1H-pyrazol-4-yl)-1H-indol-3-yl)butanamide] | 5 to 100
O=C(Nc1c[nH]c2ccc(-c3cnn(-c4ccc(C(F)(F)F)cc4)c3)cc12)C1CC(F)C1 (stereo not drawn) [Compound 190, 3-fluoro-N-(5-(1-(4-(trifluoromethyl)phenyl)-1H-pyrazol-4-yl)-1H-indol-3-yl)cyclobutane-1-carboxamide] | 5 to 100
COCC1(C(=O)Nc2c[nH]c3ccc(-c4cnn(-c5ccc(C(F)(F)F)cc5)c4)cc23)CCC1 [Compound 199, 1-(methoxymethyl)-N-(5-(1-(4-(trifluoromethyl)phenyl)-1H-pyrazol-4-yl)-1H-indol-3-yl)cyclobutane-1-carboxamide] | 1 to 5
CCC(C)(O)C(=O)Nc1c[nH]c2ccc(-c3cnn(-c4ccc(C(F)(F)F)cc4)c3)cc12 (stereo not drawn) [Compound 200, 2-hydroxy-2-methyl-N-(5-(1-(4-(trifluoromethyl)phenyl)-1H-pyrazol-4-yl)-1H-indol-3-yl)butanamide] | 1 to 5
CC(C)(CO)C(=O)Nc1c[nH]c2ccc(-c3cnn(-c4ccc(C(F)(F)F)cc4)c3)cc12 [Compound 201, 3-hydroxy-2,2-dimethyl-N-(5-(1-(4-(trifluoromethyl)phenyl)-1H-pyrazol-4-yl)-1H-indol-3-yl)propanamide] | 1 to 5
CC1(C(=O)Nc2c[nH]c3ccc(-c4cnn(-c5ccc(C(F)(F)F)cc5)c4)cc23)CCCO1 (stereo not drawn) [Compound 203, 2-methyl-N-(5-(1-(4-(trifluoromethyl)phenyl)-1H-pyrazol-4-yl)-1H-indol-3-yl)tetrahydrofuran-2-carboxamide] | 5 to 100
CC(C)[C@H](O)C(=O)Nc1c[nH]c2ccc(-c3cnn(-c4ccc(C(F)(F)F)cc4)c3)cc12 [Compound 204, (S)-2-hydroxy-3-methyl-N-(5-(1-(4-(trifluoromethyl)phenyl)-1H-pyrazol-4-yl)-1H-indol-3-yl)butanamide] | 1 to 5
CN1CC(C(=O)Nc2c[nH]c3ccc(-c4cnn(-c5ccc(C(F)(F)F)cc5)c4)cc23)C1=O (stereo not drawn) [Compound 205, 1-methyl-2-oxo-N-(5-(1-(4-(trifluoromethyl)phenyl)-1H-pyrazol-4-yl)-1H-indol-3-yl)azetidine-3-carboxamide] | 1 to 5
CC(=O)NCC(C)(C)C(=O)Nc1c[nH]c2ccc(-c3cnn(-c4ccc(C(F)(F)F)cc4)c3)cc12 [Compound 208, 3-acetamido-2,2-dimethyl-N-(5-(1-(4-(trifluoromethyl)phenyl)-1H-pyrazol-4-yl)-1H-indol-3-yl)propanamide] | 1 to 5
CN1C(=O)CC[C@H]1C(=O)Nc1c[nH]c2ccc(-c3cnn(-c4ccc(C(F)(F)F)cc4)c3)cc12 [Compound 209, (S)-1-methyl-5-oxo-N-(5-(1-(4-(trifluoromethyl)phenyl)-1H-pyrazol-4-yl)-1H-indol-3-yl)pyrrolidine-2-carboxamide] | 5 to 100
O=C1NCCC1C(=O)Nc1c[nH]c2ccc(-c3cnn(-c4ccc(C(F)(F)F)cc4)c3)cc12 (stereo not drawn) [Compound 210, 2-oxo-N-(5-(1-(4-(trifluoromethyl)phenyl)-1H-pyrazol-4-yl)-1H-indol-3-yl)pyrrolidine-3-carboxamide] | 5 to 100
CN1CCC(C(=O)Nc2c[nH]c3ccc(-c4cnn(-c5ccc(C(F)(F)F)cc5)c4)cc23)C1=O (stereo not drawn) [Compound 211, 1-methyl-2-oxo-N-(5-(1-(4-(trifluoromethyl)phenyl)-1H-pyrazol-4-yl)-1H-indol-3-yl)pyrrolidine-3-carboxamide] | 1 to 5
CC(=O)NC(C)C(=O)Nc1c[nH]c2ccc(-c3cnn(-c4ccc(C(F)(F)F)cc4)c3)cc12 (stereo not drawn) [Compound 215, 2-acetamido-N-(5-(1-(4-(trifluoromethyl)phenyl)-1H-pyrazol-4-yl)-1H-indol-3-yl)propanamide] | 1 to 5

Further lines, results first:

EC50 [µM] | SMILES
1 to 5 | O=C(CNCC(F)(F)F)Nc1c[nH]c2ccc(-c3cnn(-c4ccc(C(F)(F)F)cc4)c3)cc12 [Compound 183, 2-((2,2,2-trifluoroethyl)amino)-N-(5-(1-(4-(trifluoromethyl)phenyl)-1H-pyrazol-4-yl)-1H-indol-3-yl)acetamide]
0.2 to 1 | O=C(Nc1c[nH]c2ccc(-c3cnn(-c4ccc(C(F)(F)F)cc4)c3)cc12)C1(O)CCCC1 [Compound 186, 1-hydroxy-N-(5-(1-(4-(trifluoromethyl)phenyl)-1H-pyrazol-4-yl)-1H-indol-3-yl)cyclopentane-1-carboxamide]
0.2 to 1 | O=C(Nc1c[nH]c2ccc(-c3cnn(-c4ccc(C(F)(F)F)cc4)c3)cc12)C1(O)CCCCC1 [Compound 187, 1-hydroxy-N-(5-(1-(4-(trifluoromethyl)phenyl)-1H-pyrazol-4-yl)-1H-indol-3-yl)cyclohexane-1-carboxamide]
1 to 5 | O=C(Nc1c[nH]c2ccc(-c3cnn(-c4ccc(C(F)(F)F)cc4)c3)cc12)C1CCC(CO)CC1 (stereo not drawn) [Compound 188, 4-(hydroxymethyl)-N-(5-(1-(4-(trifluoromethyl)phenyl)-1H-pyrazol-4-yl)-1H-indol-3-yl)cyclohexane-1-carboxamide]
0.2 to 1 | O=C(Nc1c[nH]c2ccc(-c3cnn(Cc4ccc(C(F)(F)F)nc4)c3)cc12)C1CCC1 [Compound 191, N-(5-(1-((6-(trifluoromethyl)pyridin-3-yl)methyl)-1H-pyrazol-4-yl)-1H-indol-3-yl)cyclobutanecarboxamide]
0.2 to 1 | C[C@@H](O)C(=O)Nc1c[nH]c2cc(F)c(-c3cnn(-c4ccc(C(F)(F)F)cc4)c3)cc12 [Compound 192, (R)-N-(6-fluoro-5-(1-(4-(trifluoromethyl)phenyl)-1H-pyrazol-4-yl)-1H-indol-3-yl)-2-hydroxypropanamide]
1 to 5 | CC(NS(C)(=O)=O)C(=O)Nc1c[nH]c2cc(F)c(-c3cnn(-c4ccc(C(F)(F)F)cc4)c3)cc12 (stereo not drawn) [Compound 193, N-(6-fluoro-5-(1-(4-(trifluoromethyl)phenyl)-1H-pyrazol-4-yl)-1H-indol-3-yl)-2-(methylsulfonamido)propanamide]
1 to 5 | O=C(Nc1c[nH]c2ccc(-c3cnn(-c4ccc(C(F)(F)F)cc4)c3)cc12)C1(O)COC1 [Compound 194, 3-hydroxy-N-(5-(1-(4-(trifluoromethyl)phenyl)-1H-pyrazol-4-yl)-1H-indol-3-yl)oxetane-3-carboxamide]
0.2 to 1 | O=C(CC(O)C(F)(F)F)Nc1c[nH]c2ccc(-c3cnn(-c4ccc(C(F)(F)F)cc4)c3)cc12 (stereo not drawn) [Compound 195, 4,4,4-trifluoro-3-hydroxy-N-(5-(1-(4-(trifluoromethyl)phenyl)-1H-pyrazol-4-yl)-1H-indol-3-yl)butanamide]
1 to 5 | O=C(Nc1c[nH]c2ccc(-c3cnn(-c4ccc(C(F)(F)F)cc4)c3)cc12)C(CO)C(F)(F)F (stereo not drawn) [Compound 196, 3,3,3-trifluoro-2-(hydroxymethyl)-N-(5-(1-(4-(trifluoromethyl)phenyl)-1H-pyrazol-4-yl)-1H-indol-3-yl)propanamide]
0.2 to 1 | CCC(O)C(=O)Nc1c[nH]c2ccc(-c3cnn(-c4ccc(C(F)(F)F)cc4)c3)cc12 (stereo not drawn) [Compound 197, 2-hydroxy-N-(5-(1-(4-(trifluoromethyl)phenyl)-1H-pyrazol-4-yl)-1H-indol-3-yl)butanamide]
1 to 5 | CC(C)(O)C(=O)Nc1c[nH]c2ccc(-c3cnn(-c4ccc(C(F)(F)F)cc4)c3)cc12 [Compound 198, 2-hydroxy-2-methyl-N-(5-(1-(4-(trifluoromethyl)phenyl)-1H-pyrazol-4-yl)-1H-indol-3-yl)propanamide]
0.2 to 1 | O=C(Nc1c[nH]c2ccc(-c3cnn(-c4ccc(C(F)(F)F)cc4)c3)cc12)C1(O)CCC1 [Compound 202, 1-hydroxy-N-(5-(1-(4-(trifluoromethyl)phenyl)-1H-pyrazol-4-yl)-1H-indol-3-yl)cyclobutane-1-carboxamide]
0.2 to 1 | COCCOCCC(=O)Nc1c[nH]c2ccc(-c3cnn(-c4ccc(C(F)(F)F)cc4)c3)cc12 [Compound 206, 3-(2-methoxyethoxy)-N-(5-(1-(4-(trifluoromethyl)phenyl)-1H-pyrazol-4-yl)-1H-indol-3-yl)propanamide]
0.2 to 1 | O=C(COCC(F)(F)F)Nc1c[nH]c2ccc(-c3cnn(-c4ccc(C(F)(F)F)cc4)c3)cc12 [Compound 207, 2-(2,2,2-trifluoroethoxy)-N-(5-(1-(4-(trifluoromethyl)phenyl)-1H-pyrazol-4-yl)-1H-indol-3-yl)acetamide]
0.2 to 1 | O=C(COC(F)(F)F)Nc1c[nH]c2ccc(-c3cnn(-c4ccc(C(F)(F)F)cc4)c3)cc12 [Compound 212, 2-(trifluoromethoxy)-N-(5-(1-(4-(trifluoromethyl)phenyl)-1H-pyrazol-4-yl)-1H-indol-3-yl)acetamide]
0.2 to 1 | O=C(Nc1c[nH]c2ccc(-c3cnn(-c4ccc(C(F)(F)F)cc4)c3)cc12)C1CS(=O)(=O)C1 [Compound 213, N-(5-(1-(4-(trifluoromethyl)phenyl)-1H-pyrazol-4-yl)-1H-indol-3-yl)thietane-3-carboxamide 1,1-dioxide]
0.2 to 1 | O=C(CCC(F)(F)F)Nc1c[nH]c2ccc(-c3cnn(-c4ccc(C(F)(F)F)cc4)c3)cc12 [Compound 214, 4,4,4-trifluoro-N-(5-(1-(4-(trifluoromethyl)phenyl)-1H-pyrazol-4-yl)-1H-indol-3-yl)butanamide]
